Assay results taken from ChEMBL document CHEMBL3885881, “DrugMatrix”.

Species on record: Rattus norvegicus
Assay: DrugMatrix - Regimen: Daily Repeat
Type: toxicity, organism-based, Sprague-Dawley
Design: regimen Daily Repeat, gender Male, age 6-8 weeks
Conditions: in vivo, po, route oral GAVAGE, vehicle 100 % SALINE; for TOTAL BILIRUBIN / URIC ACID / ALANINE AMINOTRANSFERASE / ALBUMIN / ALKALINE PHOSPHATASE / ASPARTATE AMINOTRANSFERASE / BLOOD UREA NITROGEN / CARBON DIOXIDE / CHLORIDE / CHOLESTEROL / CREATINE PHOSPHOKINASE / CREATININE / GLUCOSE / LIPASE / PHOSPHORUS / POTASSIUM / SODIUM / TOTAL PROTEIN: tissue Plasma; for ABSOLUTE BASOPHIL / ABSOLUTE EOSINOPHIL / ABSOLUTE LYMPHOCYTE / ABSOLUTE MONOCYTE / BASOPHIL / EOSINOPHIL / ERYTHROCYTE COUNT / HEMATOCRIT / HEMOGLOBIN / LEUKOCYTE COUNT / LYMPHOCYTE / MEAN CORPUSCULAR HEMOGLOBIN / MEAN CORPUSCULAR HEMOGLOBIN CONCENTRATION / MEAN CORPUSCULAR VOLUME / MONOCYTE / NEUTROPHIL / PLATELET COUNT: tissue Blood
[1] = 0 mg/kg, 120 h, dose level Control, time 5 day
[2] = 0 mg/kg, […], dose level Control, time 14 day
[3] = 2 mg/kg, 72 h, dose level High, time 3 day
[4] = 2 mg/kg, 120 h, dose level High, time 5 day
[5] = 2 mg/kg, […], dose level High, time 14 day

## COc1cccc2c1C(=O)c1c(O)c3c(c(O)c1C2=O)C[C@@](O)(C(C)=O)C[C@@H]3O[C@H]1C[C@H](N)[C@H](O)[C@H](C)O1 [DAUNORUBICIN]
[1]
  TOTAL BILIRUBIN: 0.37 mg/dL
  URIC ACID: 0.97 mg/dL
[2]
  ABSOLUTE BASOPHIL: 93.3 cells/µL
  ABSOLUTE EOSINOPHIL: 80 cells/µL
  ABSOLUTE LYMPHOCYTE: 6890 cells/µL
  ABSOLUTE MONOCYTE: 170 cells/µL
  BASOPHIL: 1%
  EOSINOPHIL: 0.83%
  ERYTHROCYTE COUNT: 7.03 x10E6/uL
  HEMATOCRIT: 43.4%
  HEMOGLOBIN: 14.83 G/DL
  LEUKOCYTE COUNT: 8.94 x10E3/uL
  LYMPHOCYTE: 77.93%
  MEAN CORPUSCULAR HEMOGLOBIN: 21.1 pg
  MEAN CORPUSCULAR HEMOGLOBIN CONCENTRATION: 34.17 G/DL
  MEAN CORPUSCULAR VOLUME: 61.77 fL
  MONOCYTE: 1.33%
  NEUTROPHIL: 18%
  PLATELET COUNT: 1097.33 x10E3/uL
  ALANINE AMINOTRANSFERASE: 32 u/L
  ALBUMIN: 3.83 G/DL
  ALKALINE PHOSPHATASE: 334.67 u/L
  ASPARTATE AMINOTRANSFERASE: 69.33 u/L
  BLOOD UREA NITROGEN: 16 mg/dL
  CARBON DIOXIDE: 40 mmol/L
  CHLORIDE: 105.67 MEQ/L
  CHOLESTEROL: 70.33 mg/dL
  CREATINE PHOSPHOKINASE: 144.67 u/L
  CREATININE: 0.3 mg/dL
  GLUCOSE: 177.67 mg/dL
  LIPASE: 16.33 u/L
  PHOSPHORUS: 10.83 mg/dL
  POTASSIUM: 5.77 MEQ/L
  SODIUM: 143.33 MEQ/L
  TOTAL BILIRUBIN: 0.33 mg/dL
  TOTAL PROTEIN: 6.37 G/DL
  URIC ACID: 0.17 mg/dL
[3]
  ABSOLUTE BASOPHIL: 110 cells/µL
  ABSOLUTE EOSINOPHIL: 210 cells/µL
  ABSOLUTE LYMPHOCYTE: 7080 cells/µL
  ABSOLUTE MONOCYTE: 140 cells/µL
  BASOPHIL: 1.17%
  EOSINOPHIL: 2.47%
  ERYTHROCYTE COUNT: 6.67 x10E6/uL
  HEMATOCRIT: 42.37%
  HEMOGLOBIN: 13.97 G/DL
  LEUKOCYTE COUNT: 8.7 x10E3/uL
  LYMPHOCYTE: 80.87%
  MEAN CORPUSCULAR HEMOGLOBIN: 20.97 pg
  MEAN CORPUSCULAR HEMOGLOBIN CONCENTRATION: 33 G/DL
  MEAN CORPUSCULAR VOLUME: 63.57 fL
  MONOCYTE: 1.7%
  NEUTROPHIL: 13.37%
  PLATELET COUNT: 1161.67 x10E3/uL
  ALANINE AMINOTRANSFERASE: 34 u/L
  ALBUMIN: 3.9 G/DL
  ALKALINE PHOSPHATASE: 354 u/L
  ASPARTATE AMINOTRANSFERASE: 68 u/L
  BLOOD UREA NITROGEN: 16.67 mg/dL
  CARBON DIOXIDE: 36 mmol/L
  CHLORIDE: 104 MEQ/L
  CHOLESTEROL: 67.67 mg/dL
  CREATINE PHOSPHOKINASE: 219 u/L
  CREATININE: 0.4 mg/dL
  GLUCOSE: 175 mg/dL
  LIPASE: 11 u/L
  PHOSPHORUS: 12.2 mg/dL
  POTASSIUM: 6.47 MEQ/L
  SODIUM: 142.67 MEQ/L
  TOTAL BILIRUBIN: 0.37 mg/dL
  TOTAL PROTEIN: 6.43 G/DL
  URIC ACID: 1.17 mg/dL
[4]
  ABSOLUTE BASOPHIL: 75 cells/µL
  ABSOLUTE EOSINOPHIL: 40 cells/µL
  ABSOLUTE LYMPHOCYTE: 7990 cells/µL
  ABSOLUTE MONOCYTE: 140 cells/µL
  BASOPHIL: 0.9%
  EOSINOPHIL: 0.5%
  ERYTHROCYTE COUNT: 6.82 x10E6/uL
  HEMATOCRIT: 42.9%
  HEMOGLOBIN: 13.75 G/DL
  LEUKOCYTE COUNT: 9.39 x10E3/uL
  LYMPHOCYTE: 84.25%
  MEAN CORPUSCULAR HEMOGLOBIN: 20.2 pg
  MEAN CORPUSCULAR HEMOGLOBIN CONCENTRATION: 32.15 G/DL
  MEAN CORPUSCULAR VOLUME: 62.9 fL
  MONOCYTE: 1.5%
  NEUTROPHIL: 12.5%
  PLATELET COUNT: 1293.5 x10E3/uL
  ALANINE AMINOTRANSFERASE: 27.67 u/L
  ALBUMIN: 3.93 G/DL
  ALKALINE PHOSPHATASE: 361.67 u/L
  ASPARTATE AMINOTRANSFERASE: 66 u/L
  BLOOD UREA NITROGEN: 14.67 mg/dL
  CARBON DIOXIDE: 35 mmol/L
  CHLORIDE: 106.67 MEQ/L
  CHOLESTEROL: 68.67 mg/dL
  CREATINE PHOSPHOKINASE: 274.67 u/L
  CREATININE: 0.4 mg/dL
  GLUCOSE: 192.33 mg/dL
  LIPASE: 9 u/L
  PHOSPHORUS: 11.87 mg/dL
  POTASSIUM: 6.67 MEQ/L
  SODIUM: 146 MEQ/L
  TOTAL BILIRUBIN: 0.37 mg/dL
  TOTAL PROTEIN: 6.33 G/DL
  URIC ACID: 1.37 mg/dL
[5]
  ABSOLUTE BASOPHIL: 120 cells/µL
  ABSOLUTE EOSINOPHIL: 74 cells/µL
  ABSOLUTE LYMPHOCYTE: 8830 cells/µL
  ABSOLUTE MONOCYTE: 250 cells/µL
  BASOPHIL: 1.1%
  EOSINOPHIL: 0.66%
  ERYTHROCYTE COUNT: 7.41 x10E6/uL
  HEMATOCRIT: 45.06%
  HEMOGLOBIN: 15.1 G/DL
  LEUKOCYTE COUNT: 11 x10E3/uL
  LYMPHOCYTE: 80.4%
  MEAN CORPUSCULAR HEMOGLOBIN: 20.36 pg
  MEAN CORPUSCULAR HEMOGLOBIN CONCENTRATION: 33.46 G/DL
  MEAN CORPUSCULAR VOLUME: 60.78 fL
  MONOCYTE: 2%
  NEUTROPHIL: 15.02%
  PLATELET COUNT: 1090.8 x10E3/uL
  ALANINE AMINOTRANSFERASE: 31.8 u/L
  ALBUMIN: 3.88 G/DL
  ALKALINE PHOSPHATASE: 326.6 u/L
  ASPARTATE AMINOTRANSFERASE: 64.8 u/L
  BLOOD UREA NITROGEN: 16.6 mg/dL
  CARBON DIOXIDE: 42.4 mmol/L
  CHLORIDE: 106 MEQ/L
  CHOLESTEROL: 66.4 mg/dL
  CREATINE PHOSPHOKINASE: 203 u/L
  CREATININE: 0.4 mg/dL
  GLUCOSE: 167.6 mg/dL
  LIPASE: 12.4 u/L
  PHOSPHORUS: 9.42 mg/dL
  POTASSIUM: 6.3 MEQ/L
  SODIUM: 144.4 MEQ/L
  TOTAL BILIRUBIN: 0.4 mg/dL
  TOTAL PROTEIN: 6.36 G/DL
  URIC ACID: 0.04 mg/dL
